According to patent US4634766A, “1,4-diaza-phenothiazines” (Merck Frosst Canada, Inc., priority 1984, dated 1987):
≈ marks a conversion by molar mass, not a printed value.

Key:
[1] = tested on: asthmatic rats; assay: Asthmatic Rat Assay: duration of dyspnoea after egg albumin aerosol challenge; type: in vivo; details: p.o.
Excerpt: Rats were obtained from an inbred line of asthmatic rats. Both female and male rats from 200 to 300 g were used.
Egg albumin (EA), grade V, crystallized and lyophilized, was obtained from Sigma Chemical Co., St. Louis. Bordetella pertussis vaccine, containing 30×10^9 killed bacteria per ml was obtained from the Institut Armand-Frappier, Laval des Rapides, Quebec. Aluminum hydroxide was obtained from the Regis Chemical Company, Chicago.
The challenge and subsequent respiratory recordings were carried out in a clear plastic box with internal dimensions 10×6×4 inches. The top of the box was removable; in use, it was held firmly in place by four clamps and an airtight seal was maintained by a soft rubber gasket. […] A Fleisch No. 0000 pneumotachograph was inserted into one end of the box and coupled to a Grass volumetric pressure transducer (PT5-A) which was then connected to a Beckman Type R Dynograph through appropriate couplers. While aerosolizing the antigen, the outlets were open and the pneumotachograph was isolated from the chamber. The outlets were closed and the pneumotachograph and the chamber were connected during the recording or the respiratory patterns. For challenge, 2 ml of a 3% solution of antigen in saline was placed into each nebulizer and the aerosol was generated with air from a small Potter diaphragm pump operating at 10 psi and a flow of 8 liters/minute.
Rats were sensitized by injecting (s.c.) 1 ml of a suspension containing 1 mg EA and 200 mg aluminum hydroxide in saline. Simultaneously, they received an intraperitoneal (i.p.) injection of 0.5 ml of B. pertussis vaccine. They were used between days 14 and 18 postsensitization. In order to eliminate the serotonin component of the response, rats were pretreated intravenously 5 minutes prior to aerosol challenge with […] methylserzide. Rats were then exposed to an aerosol of 3% EA in saline for exactly 1 minute, then their respiratory profiles were recorded for a further 25-30 minutes. The duration of continuous dyspnoea was measured from the respiratory recordings.
Compounds were generally administered either intraperitoneally 1 hour prior to challenge or orally 11/2 hours prior to challenge. They were either dissolved in dimethylsulfoxide or suspended in 0.1% methocel and 0.5% Tween 80. The volume injected was 2 ml/kg (intraperitoneally) or 10 ml/kg (orally (p.o.)). Prior to oral treatment rats were starved overnight. Their activity was determined in terms of their ability to decrease the duration of symptoms of dyspnoea in comparison with a group of vehicle-treated controls. Usually, a compound was evaluated at a series of doses and an ED50 was determined. This was defined as the dose (mg/kg) which would inhibit the duration of symptoms by 50%.

[2] = tested on: LTB4 formation in rat polymorphonuclear leukocytes; assay: Rat Polymorphonuclear Leukocyte (P.M.N.) Assay: inhibition of LTB4 formation; type: cell-based; details: A-23187 stimulated rat PMN, LTB4 bioassay, read-out: PMN I50
Procedure: Rats under ether anesthesia were injected (i.p.) with 8 ml of a suspension of sodium caseinate (6 grams in ca. 50 ml water). After 15-24 hours the rats were sacrificed (CO2) and the cells from the peritoneal cavity were recovered by lavage with 20 ml of buffer (Eagles MEM containing 30 mM HEPES adjusted to pH 7.4 with NaOH). The cells were pelleted (350×g,5 min.), resuspended in buffer with vigorous shaking, filtered through lens paper, recentrifuged and finally suspended in buffer at a concentration of […]. A 500 μl aliquot of PMN suspension and test compound were preincubated for 2 minutes at 37° C., followed by the addition of 10 μM A-23187. The suspension was stirred for an additional 4 minutes then bioassayed for LTB4 content by adding an aliquot to a second 500 μl portion of the PMN at 37° C. The LTB4 produced in the first incubation caused aggregation of the second PMN, which was measured as a change in light transmission. The size of the assay aliquot was chosen to give a submaximal transmission change (usually -70%) for the untreated control. The percentage inhibition of LTB4 formation was calculated from the ratio of transmission change in the sample to the transmission change in the compound-free control.

[3] = tested on: guinea pig trachea; assay: Antigen Challenge in vitro Assay: contraction of sensitized tracheal chains by egg albumin; type: cell-based; details: Cavia porcellus; for inhibition at 3 µg/mL: 3 μg/ml
Procedure: Male guinea pigs weighing 300-350 g were sensitized by injecting (I.P.) 0.5 ml of a suspension containing 0.4 mg of egg albumin (Ovalbumin, Grade V, Sigma Chemical Co.) and 4.0 g aluminum hydroxide in 19.6 ml of saline. Two weeks were permitted for sensitization to occur.
Three sensitized guinea pigs were stunned and exsanguinated. The tracheas were removed, freed of adhering tissue and divided longitudinally by cutting through the cartilaginous tissue directly opposite the muscle insertion. Each opened trachea was then transected between every second cartilage. Four of the cut sections were tied together, end to end, in a series with No. 7 silk thread ensuring that the tracheal muscles were all in the same vertical plane. Thus, each chain consisted of tissue from three different animals.
The chain so formed was then suspended under 1 g of tension (by silk ties at each end) in a 20 ml organ bath containing 10 ml of modified^1 Krebs-Henseleit buffer solution gassed with 95% O2 and 5% CO2 at 37° C. Mepyramine (0.55 μg/ml) and indomethacin (2.67 μg/ml) were added to the buffer to avoid the contribution of histamine receptors and cyclooxygenase products to the contraction. To record responses one end of the tracheal chain was attached to a Gould-Statham UC-2 force displacement transducer which was connected to a Beckman Type R-dynograph.The preparations were allowed to equilibrate for one hour during which time the tissues were automatically washed (10 ml volume displacement) every 6 minutes.
After the equilibration period the tissues were primed with methacholine (3 μg/ml; 1.5×10^-5 M), washed and allowed to recover to baseline. The tissues were treated again with a second dose of methacholine, washed, allowed to return to baseline and washed for an additional hour.
Two chains were used as a control. These were incubated in a concentration of egg albumin sufficient to induce an average contraction of 50-80% of the methacholine response.
Each compound to be tested was added to two other baths (at a final concentration in each bath of 10 μg/ml) 15 minutes prior to challenging the fresh chains with egg albumin.
The response of the challenged tissue was expressed as a percentage of the methacholine maximum. The percentage inhibition for each compound was then calculated. Compounds which at 10 μg/ml (final conc.) inhibited the egg albumin response by 50% or more were retested at a lower concentration.

[4] = tested on: PAF-induced hyperalgesia in the rat paw; assay: PAF-Induced Hyperalgesia Assay; type: in vivo, rat (Sprague-Dawley); details: 10 mg/kg, i.p.

`COc1ccc2c(c1)[S+]([O-])c1nccnc1N2C` (centres unmarked) was tested, and the “Asthmatic Rat % Inhibition” value ([1]; 3 mg/kg) was 25%.
With `c1ccc2c(c1)Nc1nccnc1S2` [drawing 17] the IC50 [2] was 5 µg/mL (≈ 24.8 µM) and the inhibition at 10 µg/mL ([3]; 10 μg/ml) was 85%.
`CN1c2cc(Cl)c(O)cc2Sc2nccnc21` [drawing 28] was tested, and the “Asthmatic Rat % Inhibition” value ([1]; 5 mg/kg) was 47%.
Work on `COc1cc2c(cc1Cl)Nc1nccnc1S2` yielded an IC50 [2] of 1 µg/mL (≈ 3.76 µM).
Compound `COc1cc2c(cc1Cl)N(C)c1nccnc1S2` has an IC50 [2] of 5 µg/mL (≈ 17.9 µM).
In the case of `COc1ccc2c(c1)Sc1nccnc1N2C`, the “Asthmatic Rat % Inhibition” value ([1]; 3 mg/kg) is reported as 43%.
Compound `c1ccc2c(c1)Nc1nccnc1O2` has an IC50 [2] of 0.5 to 1 µg/mL (≈ 2.7 to 5.4 µM) and an inhibition at 3 µg/mL [3] of 35%.
`CN1c2cc(Cl)c(O)cc2Sc2nccnc21` [drawing 18] was tested, and the IC50 [2] was 0.2 µg/mL (≈ 0.753 µM).
`COc1ccc2c(c1)Sc1nccnc1N2` showed an IC50 [2] of 0.05 to 0.5 µg/mL (≈ 0.216 to 2.16 µM) and an inhibition at 3 µg/mL [3] of 42%.
For `CCOC(=O)CN1c2ccccc2Sc2nccnc21`, the inhibition at 3 µg/mL [3] was 22%.
`CC(=O)N1c2ccccc2Sc2nccnc21` was tested, and the inhibition at 3 µg/mL [3] was 14%.
For `CN1c2ccc(O)cc2Sc2nccnc21` [drawing 21], the IC50 [2] was 1 to 5 µg/mL (≈ 4.32 to 21.6 µM) and the inhibition at 3 µg/mL [3] was 71%.
In the case of `CN1c2ccc(O)cc2Sc2nccnc21` [drawing 30], the “Asthmatic Rat % Inhibition” value ([1]; 3 mg/kg) is reported as 39%.
In the case of `c1ccc2c(c1)Nc1nccnc1S2` [drawing 27], the “Asthmatic Rat % Inhibition” value ([1]; 5 mg/kg) is reported as 30% and the “PAF % Inhibition” value [4] is reported as 70%.
`CN1c2ccccc2Sc2nccnc21` showed an IC50 [2] of 1 to 5 µg/mL (≈ 4.65 to 23.2 µM).
